In US8609100B2, “Method for inhibiting dendritic cell immunoreceptor (DCIR)-mediated human immunodeficiency virus infection comprising administering anti-DCIR antibodies” (Universite Laval, priority 2008, dated 2013):

Experiments:
[1] = test system: HIV-1 (NL4-3balenv); assay: HIV-1 transfer assay: virus-pulsed IM-MDDC co-cultured with autologous CD4+ T cells, p24 ELISA; format: cell-based, human immunodeficiency virus type 1
Description: HIV-1 transfer assay: IM-MDDC (10^5 cells in 100 μl) transfected either with the above listed siRNAs or pre-incubated with polyclonal anti-DCIR (10 μg/1.5×10^5 cells) were exposed to HIV-1 (10 ng of p24) for 60 min at 37° C. Next, the virus-cell mixture was washed three times with PBS to remove unadsorbed virions. In some experiments, cells were also treated with the anti-HIV-1 drug EFV (efavirenz) (50 μM). Finally, IM-MDDC were co-cultured with autologous activated CD4^+ T lymphocytes at a 1:3 ratio in complete RPMI-1640 medium supplemented with IL-2 (30 U/ml) in 96-well plates in a final volume of 200 μl. At day 2, virus production was estimated by measuring p24 levels in cell-free culture supernatants by ELISA.
(§1) We next evaluated the transfer of HIV to autologous CD4^+ T cells. To that effect, IM-MDDC (1×10^6 cells) were treated with Oligofectamine and then either left untreated (control) or exposed to a non-specific siRNA and a DCIR-specific siRNA. Next, cells (1×10^5) were pulsed with NL4-3balenv (10 ng of p24) for 60 min at 37° C. After three washes with PBS to eliminate unbound virus, IM-MDDC were co-cultured with autologous CD4^+ T cells at a 1:3 ratio. Cell-free culture supernatants were collected at day 2 following initiation of the co-culture and analyzed for the p24 content. Data shown in FIG. 3 represent the means±SD of triplicate samples from three combined independent experiments. Asterisks denote statistically significant data (***, P<0.001).
as §1, with “In FIG. 4A,” for “We next evaluated the transfer of HIV to autologous CD4^+ T cells. To that effect,”, “were either left untreated or treated with EFV. IM-MDDC (2×10^5 cells)” for “(1×10^5)”, “(20” for “(10”, “shown” for “shown in FIG. 3”, “two different donors and are representative of four separate donors.” for “three combined independent experiments.”, “(*, P<0.05, **, P<0.01).” for “(***, P<0.001).”
(§2) In FIG. 5 left panels, IM-MDDC (2×10^5 cells) were initially treated with either a control Ab or a polyclonal anti-DCIR (10 μg per 1.5×10^5 cells). Next, cells were extensively washed to eliminate excess Ab and pulsed with NL4-3balenv (20 ng of p24) for 2 hrs at 37° C. […] Cell-free culture supernatants were collected at the indicated time points and analyzed for the p24 content. […] Cell-free culture supernatants were collected at day 2 following initiation of the co-culture and analyzed for the p24 content. […]

[2] = test system: DCIR; assay: DCIR surface expression in siRNA-transfected IM-MDDC by flow cytometry; format: cell-based, human; conditions: 40 hrs after siRNA transfection, FIG. 2
Description: Flow cytometric analysis: Cell surface expression of DCIR was monitored by flow cytometric analysis with a flow cytometry apparatus (Epics ELITE ESP, Coulter Electronics, Burlington, ON). Before staining, cells were incubated for 15 min at 4° C. with 10% pooled human sera to block non-specific binding sites and washed once with phosphate buffered saline (PBS) supplemented with 0.5% bovine serum albumin (BSA). Next, cells were incubated for 45 min at 4° C. with anti-DCIR (0.25 μg) monoclonal Ab and then washed twice with PBS and 0.5% BSA. Non-specific staining was determined by using an isotype-matched irrelevant control Ab. After two final washes with PBS, cells were fixed in 2% paraformaldehyde and analyzed.
Gene silencing of DCIR with siRNAs: Small interfering RNAs (siRNAs) either specific (i.e. 5′-ATTTAGGTGGTCTGTCA-3′; [SEQ ID NO:11]) or non-specific for DCIR (i.e. 5′-[…]-3′; [SEQ ID NO:45]) were obtained from Qiagen and dissolved in an appropriate buffer. The studied siRNAs were subsequently tested in IM-MDDC as previously described 2. Control cells were treated with either Oligofectamine alone or Oligofectamine and non-specific siRNAs. […] The efficiency of DCIR silencing with the tested siRNA was monitored by flow cytometry.
We thus employed RNA interference to reduce DCIR expression in IM-MDDC and analyzed the possible effect on HIV-1 transfer. […]

[3] = test system: HIV-1 (NL4-3balenv); assay: HIV-1 infection of IM-MDDC: virus production by p24 ELISA; format: cell-based, human immunodeficiency virus type 1; conditions: siRNA-transfected IM-MDDC pulsed with NL4-3balenv 20 ng p24 for 2 hrs; FIG. 4C
Description: HIV-1 infection of IM-MDDC: IM-MDDC (2×10^5 cells in a final volume of 100 μl) either transfected with the studied siRNAs or pre-incubated with the above mentioned polyclonal anti-DCIR were exposed to HIV-1 (20 ng of p24) for 2 hr at 37° C. After three washes with PBS, cells were maintained in complete RPMI-1640 culture medium supplemented with GM-CSF (1,000 U/ml) and IL-4 (200 U/ml) in 96-well plates in a final volume of 200 μl. Every 3 days and for a period lasting 9 days, half of the medium was removed and kept frozen at −20° C. until assayed. Virus production was estimated by measuring p24 levels in culture supernatants by ELISA. […]
In FIG. 4C, IM-MDDC were treated with Oligofectamine and then either left untreated (control) or exposed to a non-specific siRNA and a DCIR-specific siRNA. […] Cell-free culture supernatants were collected at the indicated time points and analyzed for the p24 content. […]
as §2, with “cells).” for “cells). Next, cells were extensively washed to eliminate excess Ab and pulsed with NL4-3balenv (20 ng of p24) for 2 hrs at 37° C.”

[4] = test system: DC-SIGN; assay: DC-SIGN expression in IM-MDDC after DCIR-specific siRNA; format: cell-based, human; conditions: IM-MDDC transfected with siRNA; data not shown
Excerpt: (§3) A ˜30% decrease in surface expression of DCIR in IM-MDDC was observed following the use of DCIR-specific siRNA (FIG. 2).

[5] = test system: IM-MDDC; format: cell-based, human
Excerpt: as §3

Row | Molecule | effect on HIV-1 propagation (virus transfer) ([1]; EFV 50 μM added to IM-MDDC, FIG. 4A) | decrease in surface expression of DCIR in IM-MDDC [2] | de novo virus production in IM-MDDC (p24) [3] | reduction in virus transfer (average diminution) ([1]; cells treated with EFV (50 μM), NL4-3balenv 20 ng p24, co-culture day 2, FIG. 4A) | reduction in virus transfer (average decrease) ([1]; in absence of EFV, NL4-3balenv 20 ng p24, co-culture day 2, FIG. 4A) | transfer of HIV-1 from IM-MDDC to autologous CD4+ T cells (p24 content) ([1]; siRNA-transfected IM-MDDC pulsed with NL4-3balenv 10 ng p24 for 60 min, co-culture 1:3, day 2, FIG. 3) | DC-SIGN expression [4] | cells viability [5]
1 | O=C1Nc2ccc(Cl)cc2[C@@](C#CC2CC2)(C(F)(F)F)O1 [EFV, efavirenz, reference compound] | limited effect |  |  |  |  |  |  | 
2 | DCIR-specific siRNA: siRNA specific for DCIR, 5′-ATTTAGGTGGTCTGTCA-3′ [SEQ ID NO:11], obtained from Qiagen (chemistry not given here) |  | ~30% | decrease | 40% | 30% | reduced significantly | not affected | minimally affected
